In article PMC2246842, “Decrease of prostaglandin I2 binding sites in thyroid cancer” (British Journal of Cancer, 1988):
Where “and” joins values, the source holds several entries; their conditions need not be identical. Equal values may be shown once.

Tests used:
[1] = set-up: method as in Moncada et al., 1976; conditions: pH 7.4; degradation to 6-oxo-PGF1a; ref Moncada et al., 1976; cited from earlier work
[2] = biological target: T1, prostaglandin I2 (prostacyclin, PGI2) binding sites (Homo sapiens, UniProt P43119); assay: [3H]iloprost saturation binding (vacuum filtration, Scatchard analysis) on benign solitary thyroid adenoma membrane fraction
T1 sequence (P43119 1-383): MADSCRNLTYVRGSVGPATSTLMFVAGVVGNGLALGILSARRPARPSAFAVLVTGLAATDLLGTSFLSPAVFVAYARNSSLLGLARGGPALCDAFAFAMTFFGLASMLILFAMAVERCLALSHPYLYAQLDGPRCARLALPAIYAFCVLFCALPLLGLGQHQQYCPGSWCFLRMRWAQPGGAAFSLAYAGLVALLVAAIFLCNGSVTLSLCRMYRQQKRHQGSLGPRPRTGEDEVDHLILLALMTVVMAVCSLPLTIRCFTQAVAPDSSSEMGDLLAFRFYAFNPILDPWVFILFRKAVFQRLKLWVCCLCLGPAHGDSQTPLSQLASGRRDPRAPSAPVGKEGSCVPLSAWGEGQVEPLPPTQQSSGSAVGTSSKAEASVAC

[3] = biological target: T1, prostaglandin I2 (prostacyclin, PGI2) binding sites; assay: [3H]iloprost saturation binding (vacuum filtration, Scatchard analysis) on well differentiated thyroid cancer membrane fraction
Procedure: (§1) For comparative studies saturation experi- ments were performed. […] Values are given as x +s.d. Student's t-test was employed for paired data. […] Each point represents the average of 6 separate experiments. […] Each point represents the average of 5 separate determinations.

[4] = biological target: T1, prostaglandin I2 (prostacyclin, PGI2) binding sites; assay: [3H]iloprost saturation binding (vacuum filtration, Scatchard analysis) on less differentiated and anaplastic thyroid cancer membrane fraction
Procedure: as §1

[5] = biological target: prostaglandin I2 (prostacyclin, PGI2) binding sites; assay: [3H]iloprost saturation binding (vacuum filtration, Scatchard analysis) on normal thyroid membrane fraction; set-up: species or system human; conditions: normal thyroid tissue, 4 C, 40 min, mean +/- s.d.; read-out: equilibrium dissociation constant (Kd), low affinity binding sites
Procedure: as §1

[6] = biological target: T1, prostaglandin I2 (prostacyclin, PGI2) binding sites; assay: as above
Procedure: as §1

Compound | stability in aqueous medium [1] | Bmax, high affinity binding sites [2] | Bmax [3] | Bmax, high affinity binding sites [3] | Bmax [4] | Bmax, high affinity binding sites [4] | diminution of [3H]iloprost high affinity binding sites [4] | Kd [5] | binding capacity (Bmax), high affinity binding sites [6]
CCCCC[C@H](O)/C=C/[C@@H]1[C@H]2C/C(=C/CCCC(=O)O)O[C@H]2C[C@H]1O [PGI2, prostaglandin I2] | rapid hydrolysis | – | – | – | – | – | – | – | –
CC#CCC(C)[C@H](O)/C=C/[C@@H]1[C@H]2C/C(=C/CCCC(=O)O)C[C@H]2C[C@H]1O (stereo partly drawn) [[3H]iloprost, iloprost] | – | 325.8 ± 110.0 | 328.9 fmol mg- 1 protein and 359.2 fmol mg- 1 protein and 253.6 fmol mg- 1 protein and 255.5 fmol mg- 1 protein and 301.2 fmol mg- 1 protein | 299.7 ± 46.0 | 218.1 fmol mg- 1 protein and 176.0 fmol mg- 1 protein and 153.2 fmol mg- 1 protein and 165.3 fmol mg- 1 protein and 190.6 fmol mg- 1 protein | 180.6 ± 25.1 | ~70% | 132 nM | 613.2 ± 130.4
